Laboratory results reported in patent US20130310256A1, “HERBICIDAL COMPOSITIONS COMPRISING 4-AMINO-3-CHLORO-5-FLUORO-6-(4-CHLORO-2-FLUORO-3-METHOXYPHENYL) PYRIDINE-2-CARBOXYLIC ACID OR A DERIVATIVE THEREOF AND VLCFA AND LIPID SYNTHESIS INHIBITING HERBICIDES” (DOW AGROSCIENCES LLC, priority 2008, published 2013).

Columns and labels:
[1] = test system: ECHCO; assay: Example I: postemergence foliar-applied weed control, greenhouse; format: in vivo, Echinochloa colona (L.) Link (junglerice); settings: 275 gai/ha; foliar
Outline: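 Plants grown in loam/sandy loam–calcareous grit soil (80:20) in greenhouse, 14 hr photoperiod, about 29° C. day/26° C. night, treated postemergence at first to fourth true leaf stage. Foliar spray at 187 L/ha with 1.25% (v/v) crop oil concentrate; Compound A dosed on acid equivalent basis, partners on active ingredient basis.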

[2] = test system: XANST; assay: Example IV: pre-emergence soil-applied weed control, greenhouse; format: in vivo, Xanthium strumarium L. (common cocklebur); settings: 29 DAA
From the text: Seeds or nutlets of the desired test plant species were planted in a soil matrix prepared by mixing a loam soil (32 percent silt, 23 percent clay, and 45 percent sand, with a pH of about 6.5 and an organic matter content of about 1.9 percent) and calcareous grit in an 80 to 20 ratio. The soil matrix was contained in plastic pots with a volume of 1 quart and a surface area of 83.6 square centimeters (cm^2).
Treatments consisted of the benzyl ester of 4-amino-3-chloro-5-fluoro-6-(4-chloro-2-fluoro-3-methoxy-phenyl)pyridine-2-carboxylic acid (compound A) formulated as an SC (suspension concentrate) and various herbicidal components alone and in combination. Forms of compound A were applied on an acid equivalent basis.
Other herbicidal components were applied on an active ingredient basis and included very long chain fatty acid (VLCFA) synthesis-inhibiting and fatty acid/lipid synthesis-inhibiting herbicides alachlor (technical grade material), dimethenamid-P formulated as Outlook®, and S-metolachlor formulated as Dual® II Magnum.
Treatment requirements were calculated based upon the rates being tested, the concentration of active ingredient or acid equivalent in the formulation, and a 12 mL application volume at a rate of 187 L/ha.
For treatments comprised of formulated compounds, measured amounts of compounds were placed individually in 25 mL glass vials and diluted in a volume of 1.25% (v/v) Agri-Dex® crop oil concentrate (COC) to obtain 12× stock solutions. […] Application solutions were prepared by adding an appropriate amount of each stock solution (e.g., 1 mL) and diluted to the appropriate final concentrations with the addition of 10 mL of an aqueous mixture of 1.25% (v/v) COC so that the final spray solutions contained 1.25% (v/v) COC.
For treatments comprised of technical compounds, weighed amounts can be placed individually in 25 mL glass vials and dissolved in a volume of 97:3 (v/v) acetone/DMSO to obtain 12× stock solutions. […] Application solutions can be prepared by adding an appropriate amount of each stock solution (e.g., 1 mL) and diluted to the appropriate final concentrations with the addition of 10 mL of an aqueous mixture of 1.5% (v/v) COC so that the final spray solutions contain 1.25% (v/v) COC. […]
For treatments comprised of formulated and technical compounds, weighed amounts of the technical materials were placed individually in 25 mL glass vials and dissolved in a volume of 97:3 (v/v) acetone/DMSO to obtain 12× stock solutions, and measured amounts of the formulated compounds were placed individually in 25 mL glass vials and diluted in a volume of 1.5% (v/v) COC or water to obtain 12× stock solutions. […]

[3] = test system: CYPES; assay: Example I: postemergence foliar-applied weed control, greenhouse; format: in vivo, Cyperus esculentus L. (yellow nutsedge); settings: 275 gai/ha

COC[C@H](C)N(C(=O)CCl)c1c(C)csc1C [Dimethenamid-P, (S) 2-chloro-N-(2,4-dimethyl-3-thienyl)-N-(2-methoxy-1-methylethyl)acetamide]
Visual Weed Control (%) - 20 DAA ECHCO Obs [1]: 70%
Visual Weed Control XANST Obs ([2]; 410 gai/ha): 23%
Visual Weed Control XANST Obs ([2]; 820 gai/ha): 30%
Visual Weed Control XANST Obs ([2]; 1640 gai/ha): 50%
Visual Weed Control (%) - 20 DAA CYPES Obs [3]: 0%
